Assay type in all cases: functional
Test [1] addresses T1, Apoptotic protease-activating factor 1 (Homo sapiens, UniProt O14727).
T1 sequence (O14727 whole entry): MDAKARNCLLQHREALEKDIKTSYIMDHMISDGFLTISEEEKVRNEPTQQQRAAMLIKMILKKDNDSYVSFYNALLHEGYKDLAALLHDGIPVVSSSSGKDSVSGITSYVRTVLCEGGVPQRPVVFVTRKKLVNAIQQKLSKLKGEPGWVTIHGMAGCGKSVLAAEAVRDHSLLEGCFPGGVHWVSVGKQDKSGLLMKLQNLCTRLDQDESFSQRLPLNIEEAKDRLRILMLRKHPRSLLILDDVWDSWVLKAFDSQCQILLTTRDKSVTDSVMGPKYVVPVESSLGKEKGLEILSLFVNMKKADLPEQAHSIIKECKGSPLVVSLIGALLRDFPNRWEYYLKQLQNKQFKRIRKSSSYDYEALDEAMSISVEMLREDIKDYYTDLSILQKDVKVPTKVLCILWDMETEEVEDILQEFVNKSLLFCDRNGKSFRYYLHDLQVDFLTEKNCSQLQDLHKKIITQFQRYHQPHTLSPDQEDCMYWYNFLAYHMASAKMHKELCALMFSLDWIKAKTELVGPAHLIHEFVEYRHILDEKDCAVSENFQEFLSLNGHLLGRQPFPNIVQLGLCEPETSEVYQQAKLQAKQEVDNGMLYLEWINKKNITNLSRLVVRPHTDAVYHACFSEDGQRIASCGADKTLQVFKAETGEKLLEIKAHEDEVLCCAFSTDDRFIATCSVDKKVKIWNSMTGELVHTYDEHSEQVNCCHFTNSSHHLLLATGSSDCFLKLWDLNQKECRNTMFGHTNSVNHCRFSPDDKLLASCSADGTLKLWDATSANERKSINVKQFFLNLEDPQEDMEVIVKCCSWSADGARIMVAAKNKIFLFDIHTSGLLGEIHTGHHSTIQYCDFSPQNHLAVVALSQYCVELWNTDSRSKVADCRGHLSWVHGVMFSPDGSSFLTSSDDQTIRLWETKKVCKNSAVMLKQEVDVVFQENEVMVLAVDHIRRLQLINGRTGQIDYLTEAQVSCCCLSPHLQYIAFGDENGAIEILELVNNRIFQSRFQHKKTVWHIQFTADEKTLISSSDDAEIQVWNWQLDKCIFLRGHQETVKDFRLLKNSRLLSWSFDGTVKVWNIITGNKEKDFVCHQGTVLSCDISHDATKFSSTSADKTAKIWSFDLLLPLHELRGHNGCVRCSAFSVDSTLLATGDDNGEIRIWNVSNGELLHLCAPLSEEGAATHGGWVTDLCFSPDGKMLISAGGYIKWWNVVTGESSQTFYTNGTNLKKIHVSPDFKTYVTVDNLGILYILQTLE

Test [2] addresses Casein kinase II subunit alpha (Homo sapiens, UniProt P68400).
Test [3] addresses Receptor tyrosine-protein kinase erbB-2 (Homo sapiens, UniProt P04626). As to the kind of experiment: Navigating the Kinome. Panel member name: ERBB2.
The target of another test is SRSF protein kinase 1 (Homo sapiens, UniProt Q96SB4).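 Further: measured as one member of a kinome-wide kinase profiling panel.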
Chain of SRSF protein kinase 1 (Q96SB4 whole entry): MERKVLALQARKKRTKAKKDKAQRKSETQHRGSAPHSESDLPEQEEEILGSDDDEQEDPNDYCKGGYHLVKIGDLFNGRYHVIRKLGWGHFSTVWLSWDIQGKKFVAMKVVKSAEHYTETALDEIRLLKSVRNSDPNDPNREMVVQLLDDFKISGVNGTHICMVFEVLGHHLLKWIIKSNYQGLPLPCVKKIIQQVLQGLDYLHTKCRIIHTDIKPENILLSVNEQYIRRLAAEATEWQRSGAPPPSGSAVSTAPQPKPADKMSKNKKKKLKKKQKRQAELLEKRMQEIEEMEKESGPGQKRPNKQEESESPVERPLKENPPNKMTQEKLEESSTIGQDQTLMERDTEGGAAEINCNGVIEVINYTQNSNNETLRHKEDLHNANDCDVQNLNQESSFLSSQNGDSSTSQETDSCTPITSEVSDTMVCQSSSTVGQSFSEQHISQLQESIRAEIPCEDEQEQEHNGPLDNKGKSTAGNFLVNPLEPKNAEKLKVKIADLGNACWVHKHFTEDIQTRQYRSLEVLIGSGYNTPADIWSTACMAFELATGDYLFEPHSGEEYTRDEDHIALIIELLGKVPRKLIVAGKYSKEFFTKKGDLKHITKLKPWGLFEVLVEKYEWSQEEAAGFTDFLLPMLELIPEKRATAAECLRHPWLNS
Test [4] concerns the target Receptor tyrosine-protein kinase erbB-4 (Homo sapiens, UniProt Q15303).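 Further: ERBB4 member of a kinome-wide kinase profiling panel.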
For test [5], the target named is Dual specificity tyrosine-phosphorylation-regulated kinase 4 (Homo sapiens, UniProt Q9NR20).
Test [6] has as its target Mitogen-activated protein kinase 12 (Homo sapiens, UniProt P53778).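 Further: measured as one member of a kinome-wide kinase profiling panel.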
The target in test [7] is Mitogen-activated protein kinase 1 (Homo sapiens, UniProt P28482).
Test [8] deals with Interleukin-1 receptor-associated kinase 1 (Homo sapiens, UniProt P51617).
The target of test [9] is 3-phosphoinositide-dependent protein kinase 1 (Homo sapiens, UniProt O15530).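 Further: value comes from the Navigating the Kinome panel, PDPK1 member.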
Chain of 3-phosphoinositide-dependent protein kinase 1 (O15530 whole entry): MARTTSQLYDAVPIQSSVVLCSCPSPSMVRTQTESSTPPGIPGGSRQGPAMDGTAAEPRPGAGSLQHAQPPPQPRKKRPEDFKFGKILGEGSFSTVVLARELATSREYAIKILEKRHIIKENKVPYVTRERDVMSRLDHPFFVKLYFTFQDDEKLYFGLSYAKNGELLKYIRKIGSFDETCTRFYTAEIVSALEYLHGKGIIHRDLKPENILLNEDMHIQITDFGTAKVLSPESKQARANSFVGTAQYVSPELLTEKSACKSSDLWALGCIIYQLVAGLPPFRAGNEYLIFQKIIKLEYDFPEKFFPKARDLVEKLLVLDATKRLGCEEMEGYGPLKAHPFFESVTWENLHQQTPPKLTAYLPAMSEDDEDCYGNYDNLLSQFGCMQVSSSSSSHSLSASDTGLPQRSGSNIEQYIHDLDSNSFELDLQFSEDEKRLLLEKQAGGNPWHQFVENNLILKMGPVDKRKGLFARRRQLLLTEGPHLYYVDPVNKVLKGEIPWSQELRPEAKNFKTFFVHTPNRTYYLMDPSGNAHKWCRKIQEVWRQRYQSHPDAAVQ
Test [10] deals with Tyrosine-protein kinase Fyn (Homo sapiens, UniProt P06241).
Chain of Tyrosine-protein kinase Fyn (P06241 whole entry): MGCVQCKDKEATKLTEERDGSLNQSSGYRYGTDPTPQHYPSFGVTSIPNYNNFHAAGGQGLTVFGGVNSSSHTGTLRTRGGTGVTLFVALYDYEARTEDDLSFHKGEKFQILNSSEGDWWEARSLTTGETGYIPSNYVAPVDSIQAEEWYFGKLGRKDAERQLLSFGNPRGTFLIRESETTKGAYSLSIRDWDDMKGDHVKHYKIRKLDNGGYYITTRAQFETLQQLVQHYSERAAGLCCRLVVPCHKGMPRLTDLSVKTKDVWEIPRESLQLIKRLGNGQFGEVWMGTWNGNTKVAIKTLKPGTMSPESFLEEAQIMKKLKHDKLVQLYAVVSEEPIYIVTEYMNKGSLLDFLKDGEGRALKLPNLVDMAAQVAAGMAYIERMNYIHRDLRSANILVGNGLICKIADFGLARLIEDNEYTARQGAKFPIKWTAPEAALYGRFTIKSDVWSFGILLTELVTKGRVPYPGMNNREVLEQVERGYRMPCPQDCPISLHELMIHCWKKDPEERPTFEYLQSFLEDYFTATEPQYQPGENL
The target of the next test is Ephrin type-A receptor 2 (Homo sapiens, UniProt P29317).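 Further: EPHA2 tested as one member of a kinome-wide kinase panel.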
The target in test [11] is MAP kinase-interacting serine/threonine-protein kinase 2 (Homo sapiens, UniProt Q9HBH9).
Test [12] addresses Testis-specific serine/threonine-protein kinase 1 (Homo sapiens, UniProt Q9BXA7).
Test [13] has as its target MAP kinase-activated protein kinase 2 (Homo sapiens, UniProt P49137).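 Further: measured as one member of a kinome-wide kinase panel.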
Test [14] concerns the target Protein kinase C iota type (Homo sapiens, UniProt P41743).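 Further: measured within a kinome-wide kinase panel, PRKCI as panel member.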
Test [15] has as its target Serine/threonine-protein kinase PLK3 (Homo sapiens, UniProt Q9H4B4).
Test [16] concerns the target Phosphorylase b kinase gamma catalytic chain, liver/testis isoform (Homo sapiens, UniProt P15735).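 Further: PHKG2 measured as one member of a kinome-wide kinase panel.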
Test [17] has as its target RAC-gamma serine/threonine-protein kinase (Homo sapiens, UniProt Q9Y243).
Test [18] has as its target Lymphokine-activated killer T-cell-originated protein kinase (Homo sapiens, UniProt Q96KB5).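 Further: value comes from a kinase panel screen in which TOPK was one of the panel members.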
Test [19] has as its target Calcium/calmodulin-dependent protein kinase type 1 (Homo sapiens, UniProt Q14012).
Another test has as its target Activin receptor type-1 (Homo sapiens, UniProt Q04771). The test is described as follows: Navigating the Kinome. Panel member name: ACVR1.
In test [20] the target is Inhibitor of nuclear factor kappa-B kinase subunit epsilon (Homo sapiens, UniProt Q14164). As to the kind of experiment: Navigating the Kinome. Panel member name: IKBKE.
Test [21] addresses Protein kinase C theta type (Homo sapiens, UniProt Q04759). The test is described as follows: Navigating the Kinome. Panel member name: PRKCQ.
Test [22] addresses Macrophage-stimulating protein receptor (Homo sapiens, UniProt Q04912). As to the kind of experiment: Navigating the Kinome. Panel member name: MST1R.
The target in test [23] is Dual specificity protein kinase CLK4 (Homo sapiens, UniProt Q9HAZ1).
In test [24] the target is Tyrosine-protein kinase Lck (Homo sapiens, UniProt P06239).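 Further: lck was assayed as one member of a kinase panel.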
Test [25] has as its target Cyclin-dependent kinase 9 (Homo sapiens, UniProt P50750).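 Further: value from the CDK9 entry of a kinome-spanning kinase panel.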
For the next test, the target named is LIM domain kinase 1 (Homo sapiens, UniProt P53667). As to the kind of experiment: Navigating the Kinome. Panel member name: LIMK1.

Activity calls are given as the source filed them.

Experimental findings from ChEMBL document CHEMBL1201862, “PubChem BioAssay data set” (2004) are described below.

Chain of Protein kinase C theta type (Q04759 whole entry): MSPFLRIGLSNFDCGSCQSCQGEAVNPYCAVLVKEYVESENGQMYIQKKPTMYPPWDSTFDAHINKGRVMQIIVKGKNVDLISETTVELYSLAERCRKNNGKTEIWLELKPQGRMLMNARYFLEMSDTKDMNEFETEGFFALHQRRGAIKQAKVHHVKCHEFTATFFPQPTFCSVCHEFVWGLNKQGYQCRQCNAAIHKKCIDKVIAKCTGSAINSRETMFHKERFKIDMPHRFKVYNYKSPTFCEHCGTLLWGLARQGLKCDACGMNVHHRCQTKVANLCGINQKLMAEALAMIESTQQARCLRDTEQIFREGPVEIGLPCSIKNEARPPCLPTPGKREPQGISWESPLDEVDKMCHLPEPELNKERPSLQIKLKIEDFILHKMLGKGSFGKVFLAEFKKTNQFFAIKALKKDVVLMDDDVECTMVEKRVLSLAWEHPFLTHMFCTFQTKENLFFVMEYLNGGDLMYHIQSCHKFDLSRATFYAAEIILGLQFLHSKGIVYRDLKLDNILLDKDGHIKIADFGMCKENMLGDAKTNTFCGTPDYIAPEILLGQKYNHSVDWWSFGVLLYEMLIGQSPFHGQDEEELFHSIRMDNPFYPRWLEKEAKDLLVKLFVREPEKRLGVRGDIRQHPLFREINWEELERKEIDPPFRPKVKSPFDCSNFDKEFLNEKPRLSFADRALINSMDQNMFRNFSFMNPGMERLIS
Chain of Macrophage-stimulating protein receptor (Q04912 25-304 limits assumed): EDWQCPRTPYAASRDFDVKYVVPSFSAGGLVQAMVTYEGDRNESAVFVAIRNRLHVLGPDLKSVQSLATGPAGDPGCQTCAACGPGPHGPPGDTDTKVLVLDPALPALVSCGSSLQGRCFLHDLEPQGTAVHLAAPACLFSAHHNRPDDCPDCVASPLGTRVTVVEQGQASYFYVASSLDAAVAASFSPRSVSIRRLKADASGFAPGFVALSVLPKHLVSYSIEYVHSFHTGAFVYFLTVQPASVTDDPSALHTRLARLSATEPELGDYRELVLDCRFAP
Chain of Macrophage-stimulating protein receptor (Q04912 310-1400 limits assumed): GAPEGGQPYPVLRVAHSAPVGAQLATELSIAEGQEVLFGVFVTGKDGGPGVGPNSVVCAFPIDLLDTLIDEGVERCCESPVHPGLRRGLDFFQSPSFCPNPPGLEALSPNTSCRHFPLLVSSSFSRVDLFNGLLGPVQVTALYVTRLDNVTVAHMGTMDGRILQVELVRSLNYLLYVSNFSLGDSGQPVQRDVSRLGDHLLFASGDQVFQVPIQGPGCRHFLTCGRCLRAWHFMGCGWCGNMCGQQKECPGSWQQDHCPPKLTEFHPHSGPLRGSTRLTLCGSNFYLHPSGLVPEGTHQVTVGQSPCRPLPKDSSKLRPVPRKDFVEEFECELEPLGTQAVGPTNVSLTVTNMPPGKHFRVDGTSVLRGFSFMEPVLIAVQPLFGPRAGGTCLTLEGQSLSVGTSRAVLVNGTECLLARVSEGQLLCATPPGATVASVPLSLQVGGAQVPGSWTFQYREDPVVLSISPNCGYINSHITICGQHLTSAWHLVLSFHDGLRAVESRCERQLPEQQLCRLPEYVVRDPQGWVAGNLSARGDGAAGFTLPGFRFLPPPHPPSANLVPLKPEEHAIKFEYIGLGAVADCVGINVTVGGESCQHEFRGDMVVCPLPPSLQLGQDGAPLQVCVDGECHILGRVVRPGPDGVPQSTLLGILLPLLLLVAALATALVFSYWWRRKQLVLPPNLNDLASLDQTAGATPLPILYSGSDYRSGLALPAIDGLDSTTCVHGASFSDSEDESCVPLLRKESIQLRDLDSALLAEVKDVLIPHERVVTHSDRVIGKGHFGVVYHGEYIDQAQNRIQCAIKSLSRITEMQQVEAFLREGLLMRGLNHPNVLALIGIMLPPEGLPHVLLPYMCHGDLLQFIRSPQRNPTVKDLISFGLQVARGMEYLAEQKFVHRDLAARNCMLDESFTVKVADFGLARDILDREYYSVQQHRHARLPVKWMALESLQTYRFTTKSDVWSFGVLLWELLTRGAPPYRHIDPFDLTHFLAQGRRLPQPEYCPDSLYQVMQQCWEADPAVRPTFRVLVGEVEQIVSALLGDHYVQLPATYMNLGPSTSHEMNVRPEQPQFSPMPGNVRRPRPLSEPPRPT
Chain of Cyclin-dependent kinase 9 (P50750 whole entry, the tested form may be a part): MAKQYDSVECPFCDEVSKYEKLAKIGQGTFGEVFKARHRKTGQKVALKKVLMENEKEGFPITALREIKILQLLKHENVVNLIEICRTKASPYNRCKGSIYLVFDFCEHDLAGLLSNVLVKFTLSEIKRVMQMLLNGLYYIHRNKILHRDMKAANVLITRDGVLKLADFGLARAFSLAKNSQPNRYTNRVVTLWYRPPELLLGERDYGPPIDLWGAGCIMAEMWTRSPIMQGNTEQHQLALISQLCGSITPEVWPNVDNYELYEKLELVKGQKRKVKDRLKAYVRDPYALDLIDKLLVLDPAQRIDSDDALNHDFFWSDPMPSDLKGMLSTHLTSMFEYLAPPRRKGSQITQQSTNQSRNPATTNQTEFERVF
Chain of Lymphokine-activated killer T-cell-originated protein kinase (Q96KB5 whole entry): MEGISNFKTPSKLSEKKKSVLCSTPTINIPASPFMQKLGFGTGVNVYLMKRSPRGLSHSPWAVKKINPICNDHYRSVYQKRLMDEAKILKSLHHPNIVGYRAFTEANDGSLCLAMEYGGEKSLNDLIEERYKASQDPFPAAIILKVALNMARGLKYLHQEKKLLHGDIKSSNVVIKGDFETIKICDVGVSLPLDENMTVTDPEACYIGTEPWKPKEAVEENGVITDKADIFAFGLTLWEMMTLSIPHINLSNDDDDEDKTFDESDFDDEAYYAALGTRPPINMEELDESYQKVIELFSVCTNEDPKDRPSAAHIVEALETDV
Chain of Calcium/calmodulin-dependent protein kinase type 1 (Q14012 whole entry): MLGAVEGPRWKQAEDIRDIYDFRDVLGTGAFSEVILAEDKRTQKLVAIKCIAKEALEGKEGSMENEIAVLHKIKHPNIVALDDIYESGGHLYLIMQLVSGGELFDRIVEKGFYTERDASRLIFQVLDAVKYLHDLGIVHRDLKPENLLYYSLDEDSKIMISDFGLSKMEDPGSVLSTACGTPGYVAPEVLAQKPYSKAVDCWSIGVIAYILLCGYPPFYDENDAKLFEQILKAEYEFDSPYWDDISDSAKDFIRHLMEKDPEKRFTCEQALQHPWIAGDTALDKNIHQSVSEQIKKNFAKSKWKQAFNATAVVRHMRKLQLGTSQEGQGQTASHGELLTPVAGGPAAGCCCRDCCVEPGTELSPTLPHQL

One may read the IC50 as the concentration at which inhibition is half-maximal. On to `O=C1C2=[N+]([O-])[C@H]3CCCC[C@H]3[N+]([O-])=C2c2ccccc21`, for which the IC50 in [1] was 18.1 µM (active).
The term Ki denotes the dissociation constant of the complex between target and ligand, obtained from inhibition or displacement. For `NC1CCC(Nc2nccc(-c3c[nH]c4ncccc34)n2)CC1` (stereo not given), the Ki in [2] is 2.51 µM (active); in test [3], > 1.58 µM (inactive); on SRSF protein kinase 1, 1 µM (active); in test [4], > 3.98 µM (inactive); in test [5], 1.58 µM (active); in [6], 0.794 µM (active). Also, the Ki in test [7] was 1.58 µM (active); in [8] it was 0.126 µM (active); in [9] it was 1.26 µM (active); in test [10] it was > 0.794 µM (inactive); on Ephrin type-A receptor 2 it was > 3.16 µM (inactive); in [11], 0.251 µM (active). The Ki is 0.0631 µM (active) in [12]; 0.794 µM (active) in test [13]; 0.0316 µM (active) in test [14]; > 7.94 µM (inactive) in [15]; 0.1 µM (active) in [16]; 0.631 µM (active) in test [17]. The Ki in [18] is 0.631 µM (active); in test [19] it was > 1.26 µM (inactive).
With `OCc1cc(-c2ccc3[nH]ncc3c2)on1`, the Ki is 20 µM (active) on Activin receptor type-1; 20 µM (active) in test [20]; 12.6 µM (active) in test [21]; 39.8 µM (active) in test [22]; 0.0316 µM (active) in test [23]; 100 µM (active) in test [24]. For the same compound, the Ki in test [25] is 5.01 µM (active).
For `COC(C(=O)N1Cc2[nH]nc(NC(=O)c3ccc(N4CCN(C)CC4)cc3)c2C1)c1ccccc1` (stereo not given), the Ki in test [2] was > 6.31 µM (inactive); in [3], > 1.58 µM (inactive); on SRSF protein kinase 1, > 7.94 µM (inactive); in test [4], > 3.98 µM (inactive); in test [5], > 7.94 µM (inactive); in test [9] it was > 3.98 µM (inactive). Further, the Ki was > 7.94 µM (inactive) in [15], > 10 µM (inactive) in [18] and > 2.51 µM (inactive) in test [19].
For `CC(C)(O)c1cn(-c2ccc3[nH]ncc3c2)nn1`, the Ki at LIM domain kinase 1 is 15.8 µM (active); at Activin receptor type-1 it was 79.4 µM (active); in [10] it was 100 µM (active); in [20], 31.6 µM (active); in [21], 39.8 µM (active); in test [22], 39.8 µM (active). Further, the values for the Ki in test [23] and in test [25] were 0.0794 µM (active) and 10 µM (active), respectively.
